conditions: human gut metagenome, 24 h, 2 µM
Further: call rule not given here.

Bacterial Biotransformation	SMILES
Compound metabolized	COc1ccc([C@@H]2Sc3ccccc3N(CCN(C)C)C(=O)[C@@H]2OC(C)=O)cc1 [DILTIAZEM]
Compound metabolized	OCCN(CCO)c1nc(N2CCCCC2)c2nc(N(CCO)CCO)nc(N3CCCCC3)c2n1 [DIPYRIDAMOLE]

assay: (§1) The drug is tested on Z-019 corresponding to rat gut metagenome with ENA study accession number: PRJEB37062 and ENA sample accession number: ERS12561818 for biotransformation under anaerobic condition. The drug concentrations were measured over 9 timepoints collected between 0 and 24 hours of incubation by liquid-chromatography-coupled mass spectrometry (LC–MS); conditions: 2 µM

Bacterial Biotransformation	SMILES
Compound NOT metabolized	COc1ccc([C@@H]2Sc3ccccc3N(CCN(C)C)C(=O)[C@@H]2OC(C)=O)cc1 [DILTIAZEM]
Compound NOT metabolized	OCCN(CCO)c1nc(N2CCCCC2)c2nc(N(CCO)CCO)nc(N3CCCCC3)c2n1 [DIPYRIDAMOLE]

assay: as §1, with “on WLS-090” for “on Z-019”, “to human” for “to rat”, “number: ERS12561753” for “number: ERS12561818”; conditions: 2 µM

Bacterial Biotransformation	SMILES
Compound metabolized	COc1ccc([C@@H]2Sc3ccccc3N(CCN(C)C)C(=O)[C@@H]2OC(C)=O)cc1 [DILTIAZEM]
Compound metabolized	OCCN(CCO)c1nc(N2CCCCC2)c2nc(N(CCO)CCO)nc(N3CCCCC3)c2n1 [DIPYRIDAMOLE]

assay: as §1, with “on WLS-086” for “on Z-019”, “to human” for “to rat”, “number: ERS12561752” for “number: ERS12561818”; conditions: 2 µM

Bacterial Biotransformation	SMILES
Compound metabolized	COc1ccc([C@@H]2Sc3ccccc3N(CCN(C)C)C(=O)[C@@H]2OC(C)=O)cc1 [DILTIAZEM]
Compound metabolized	OCCN(CCO)c1nc(N2CCCCC2)c2nc(N(CCO)CCO)nc(N3CCCCC3)c2n1 [DIPYRIDAMOLE]

assay: as §1, with “on Z-018” for “on Z-019”, “to pig” for “to rat”, “number: ERS12561817” for “number: ERS12561818”; conditions: 2 µM

Bacterial Biotransformation	SMILES
Compound metabolized	COc1ccc([C@@H]2Sc3ccccc3N(CCN(C)C)C(=O)[C@@H]2OC(C)=O)cc1 [DILTIAZEM]
Compound metabolized	OCCN(CCO)c1nc(N2CCCCC2)c2nc(N(CCO)CCO)nc(N3CCCCC3)c2n1 [DIPYRIDAMOLE]

assay: as §1, with “on WLS-027” for “on Z-019”, “to human” for “to rat”, “number: ERS12561744” for “number: ERS12561818”; conditions: 2 µM

Bacterial Biotransformation	SMILES
Compound metabolized	COc1ccc([C@@H]2Sc3ccccc3N(CCN(C)C)C(=O)[C@@H]2OC(C)=O)cc1 [DILTIAZEM]
Compound metabolized	OCCN(CCO)c1nc(N2CCCCC2)c2nc(N(CCO)CCO)nc(N3CCCCC3)c2n1 [DIPYRIDAMOLE]

assay: as §1, with “on WLS-170” for “on Z-019”, “to human” for “to rat”, “number: ERS12561762” for “number: ERS12561818”; conditions: 2 µM

Bacterial Biotransformation	SMILES
Compound metabolized	COc1ccc([C@@H]2Sc3ccccc3N(CCN(C)C)C(=O)[C@@H]2OC(C)=O)cc1 [DILTIAZEM]
Compound metabolized	OCCN(CCO)c1nc(N2CCCCC2)c2nc(N(CCO)CCO)nc(N3CCCCC3)c2n1 [DIPYRIDAMOLE]

assay: as §1, with “on WLS-039” for “on Z-019”, “to human” for “to rat”, “number: ERS12561746” for “number: ERS12561818”; conditions: 2 µM

Bacterial Biotransformation	SMILES
Compound metabolized	COc1ccc([C@@H]2Sc3ccccc3N(CCN(C)C)C(=O)[C@@H]2OC(C)=O)cc1 [DILTIAZEM]
Compound metabolized	OCCN(CCO)c1nc(N2CCCCC2)c2nc(N(CCO)CCO)nc(N3CCCCC3)c2n1 [DIPYRIDAMOLE]

assay: as §1, with “on Z-017” for “on Z-019”, “to mouse” for “to rat”, “number: ERS12561816” for “number: ERS12561818”; conditions: 2 µM

Bacterial Biotransformation	SMILES
Compound NOT metabolized	COc1ccc([C@@H]2Sc3ccccc3N(CCN(C)C)C(=O)[C@@H]2OC(C)=O)cc1 [DILTIAZEM]
Compound NOT metabolized	OCCN(CCO)c1nc(N2CCCCC2)c2nc(N(CCO)CCO)nc(N3CCCCC3)c2n1 [DIPYRIDAMOLE]

conditions: human gut metagenome, 24 h, 2 µM; remark: another data set of the same source

Bacterial Biotransformation	SMILES
Compound metabolized	COc1ccc([C@@H]2Sc3ccccc3N(CCN(C)C)C(=O)[C@@H]2OC(C)=O)cc1 [DILTIAZEM]
Compound metabolized	OCCN(CCO)c1nc(N2CCCCC2)c2nc(N(CCO)CCO)nc(N3CCCCC3)c2n1 [DIPYRIDAMOLE]

assay: as §1, with “Z-005” for “Z-019”, “to” for “to rat gut”, “ERS12561805” for “ERS12561818”; conditions: 2 µM

Bacterial Biotransformation	SMILES
Compound NOT metabolized	COc1ccc([C@@H]2Sc3ccccc3N(CCN(C)C)C(=O)[C@@H]2OC(C)=O)cc1 [DILTIAZEM]
Compound metabolized	OCCN(CCO)c1nc(N2CCCCC2)c2nc(N(CCO)CCO)nc(N3CCCCC3)c2n1 [DIPYRIDAMOLE]

assay: as §1, with “Z-021” for “Z-019”, “to” for “to rat gut”, “ERS12561820” for “ERS12561818”; conditions: 2 µM

Bacterial Biotransformation	SMILES
Compound NOT metabolized	COc1ccc([C@@H]2Sc3ccccc3N(CCN(C)C)C(=O)[C@@H]2OC(C)=O)cc1 [DILTIAZEM]
Compound metabolized	OCCN(CCO)c1nc(N2CCCCC2)c2nc(N(CCO)CCO)nc(N3CCCCC3)c2n1 [DIPYRIDAMOLE]

assay: as §1, with “Z-010” for “Z-019”, “to” for “to rat gut”, “ERS12561810” for “ERS12561818”; conditions: 2 µM

Bacterial Biotransformation	SMILES
Compound metabolized	COc1ccc([C@@H]2Sc3ccccc3N(CCN(C)C)C(=O)[C@@H]2OC(C)=O)cc1 [DILTIAZEM]
Compound metabolized	OCCN(CCO)c1nc(N2CCCCC2)c2nc(N(CCO)CCO)nc(N3CCCCC3)c2n1 [DIPYRIDAMOLE]

conditions: human gut metagenome, 24 h, 2 µM; remark: another data set of the same source

Bacterial Biotransformation	SMILES
Compound NOT metabolized	COc1ccc([C@@H]2Sc3ccccc3N(CCN(C)C)C(=O)[C@@H]2OC(C)=O)cc1 [DILTIAZEM]
Compound NOT metabolized	OCCN(CCO)c1nc(N2CCCCC2)c2nc(N(CCO)CCO)nc(N3CCCCC3)c2n1 [DIPYRIDAMOLE]

conditions: human gut metagenome, 24 h, 2 µM; remark: another data set of the same source

Bacterial Biotransformation	SMILES
Compound NOT metabolized	COc1ccc([C@@H]2Sc3ccccc3N(CCN(C)C)C(=O)[C@@H]2OC(C)=O)cc1 [DILTIAZEM]
Compound NOT metabolized	OCCN(CCO)c1nc(N2CCCCC2)c2nc(N(CCO)CCO)nc(N3CCCCC3)c2n1 [DIPYRIDAMOLE]

assay: as §1, with “on Z-001” for “on Z-019”, “to mouse” for “to rat”, “number: ERS12561801” for “number: ERS12561818”; conditions: 2 µM

Bacterial Biotransformation	SMILES
Compound metabolized	COc1ccc([C@@H]2Sc3ccccc3N(CCN(C)C)C(=O)[C@@H]2OC(C)=O)cc1 [DILTIAZEM]
Compound NOT metabolized	OCCN(CCO)c1nc(N2CCCCC2)c2nc(N(CCO)CCO)nc(N3CCCCC3)c2n1 [DIPYRIDAMOLE]

assay: as §1, with “Z-014” for “Z-019”, “ERS12561814” for “ERS12561818”; conditions: 2 µM

Bacterial Biotransformation	SMILES
Compound NOT metabolized	COc1ccc([C@@H]2Sc3ccccc3N(CCN(C)C)C(=O)[C@@H]2OC(C)=O)cc1 [DILTIAZEM]
Compound NOT metabolized	OCCN(CCO)c1nc(N2CCCCC2)c2nc(N(CCO)CCO)nc(N3CCCCC3)c2n1 [DIPYRIDAMOLE]

conditions: human gut metagenome, 24 h, 2 µM; remark: another data set of the same source

Bacterial Biotransformation	SMILES
Compound metabolized	COc1ccc([C@@H]2Sc3ccccc3N(CCN(C)C)C(=O)[C@@H]2OC(C)=O)cc1 [DILTIAZEM]
Compound NOT metabolized	OCCN(CCO)c1nc(N2CCCCC2)c2nc(N(CCO)CCO)nc(N3CCCCC3)c2n1 [DIPYRIDAMOLE]

conditions: human gut metagenome, 24 h, 2 µM; remark: another data set of the same source

Bacterial Biotransformation	SMILES
Compound metabolized	COc1ccc([C@@H]2Sc3ccccc3N(CCN(C)C)C(=O)[C@@H]2OC(C)=O)cc1 [DILTIAZEM]
Compound metabolized	OCCN(CCO)c1nc(N2CCCCC2)c2nc(N(CCO)CCO)nc(N3CCCCC3)c2n1 [DIPYRIDAMOLE]

assay: as §1, with “on WLS-082” for “on Z-019”, “to human” for “to rat”, “number: ERS12561751” for “number: ERS12561818”; conditions: 2 µM

Bacterial Biotransformation	SMILES
Compound metabolized	COc1ccc([C@@H]2Sc3ccccc3N(CCN(C)C)C(=O)[C@@H]2OC(C)=O)cc1 [DILTIAZEM]
Compound NOT metabolized	OCCN(CCO)c1nc(N2CCCCC2)c2nc(N(CCO)CCO)nc(N3CCCCC3)c2n1 [DIPYRIDAMOLE]

From ChEMBL document CHEMBL5724914, “Linking interpersonal differences in gut microbiota composition and drug biotransformation activity” (2024)
